# Data reported in US20260159536A1, “AKR1C3-ACTIVATED DNA ALKYLATING AGENT, AND MEDICAL APPLICATION THEREOF” (ASCENTAWITS PHARMACEUTICALS, LTD., priority 2021, published 2026).
# Test: in vitro
# Conditions: for half-life at 5 µM: hepatocyte cytosol
# Procedure: (1) Compound A for test, progesterone positive control, and 100 mM stock solutions of AST-3021 inhibitor were prepared and stored in the freezer (−10° C. to −30° C.).
# 1) Negative control group: at different time points (0 and 60 min), 30 μL/well of hepatocyte cytosol suspension containing 7.5 μM of sample for test was distributed in a 96-well plate. Three replicate wells were prepared in parallel.
# 2) Positive control group: at different time points (0, 5, 15, 30, 45 and 60 min), 30 μL/well of hepatocyte cytosol suspension containing 7.5 μM of the positive control was distributed in a 96-well plate. Three replicate wells were prepared in parallel.
# 3) Normal reaction group: at different time points (0, 5, 15, 30, 45 and 60 min), 30 μL/well of hepatocyte cytosol suspension containing 7.5 μM of sample for test was distributed in a 96-well plate. Three replicate wells were prepared in parallel.
# 4) Inhibition reaction group: at different time points (0, 5, 15, 30, 45 and 60 min), 30 μL/well of hepatocyte cytosol suspension containing […] of sample for test and 4.5 μM of the inhibitor was distributed in a 96-well plate. Three replicate wells were prepared in parallel.
# 6) 0 min samples: after 150 μL/well of acetonitrile containing the internal standard was added, then 15 μL/well of pre-heated NADPH working solution was added to the samples of normal reaction group, inhibition reaction group and positive control group, and 15 μL/well of pre-heated potassium phosphate buffer was added to the samples of negative control group.
# 7) Other samples (5, 15, 30, 45 and 60 min): for normal reaction group, inhibition reaction group and positive control group, 15 μL/well of pre-heated NADPH working solution was added to start the reaction; for negative control group, 15 μL/well of pre-heated potassium phosphate buffer was added. The reaction plates were then continued to incubate in a 37° C. water bath and the reactions were stopped by the addition of 150 μL/well of stop solution at the corresponding time points (5, 15, 30, 45 and 60 min).
# The concentration of analyte in each sample was expressed as a peak area ratio (peak area analyte/peak areainternal standard), then the peak area ratio at 0 min was used as a reference to calculate the % Remaining at each time point of the incubation, and the ln logarithmic value of the % Remaining was linearly fitted to the incubation time and the half-life was calculated according to the following formula.
# In the absence of AST-3021, 5 μM of progesterone was co-incubated with 2 mM of NADPH and 1 mg/mL of hepatocyte cytosol for 0-60 min as a positive control.
smiles,measurement,setting,value
O=[N+]([O-])c1ccc(C(OP(=O)(N2CC2)N2CC2)C(F)(F)F)cc1Oc1ccc(-c2ccc(F)cc2)c(F)c1 (racemic) [Compound A],half-life at 5 µM,"CD-1, mouse, Metabolic parameter t1/2, mouse, 2 mM NADPH, no AST-3021 (normal reaction / positive control group), 5 μM",8.52 h
same,half-life at 5 µM,"CD-1, mouse, Metabolic parameter t1/2, mouse, negative control group (no NADPH, no AST-3021), 5 μM",3.72 h
same,half-life at 5 µM,"CD-1, mouse, half-life, mouse, with NADPH and AST-3021",2.34 h
same,half-life at 5 µM,"CD-1, mouse, half-life, mouse, with NADPH, no AST-3021",8.52 h
same,half-life at 5 µM,"CD-1, mouse, with AST-3021 (AKR1C3 inhibitor), 3 μM, Metabolic parameter t1/2, mouse, 2 mM NADPH + 3 μM AST-3021 (inhibition reaction group), 5 μM",2.81 h
same,half-life at 5 µM,"SD, rat, Metabolic parameter t1/2, rat, 2 mM NADPH, no AST-3021 (normal reaction / positive control group), 5 μM",2.18 h
same,half-life at 5 µM,"SD, rat, Metabolic parameter t1/2, rat, negative control group (no NADPH, no AST-3021), 5 μM",1.83 h
same,half-life at 5 µM,"SD, rat, with AST-3021 (AKR1C3 inhibitor), 3 μM, Metabolic parameter t1/2, rat, 2 mM NADPH + 3 μM AST-3021 (inhibition reaction group), 5 μM",1.69 h
same,half-life at 5 µM,"Sprague-Dawley (SD), rat, half-life, with NADPH and AST-3021",1.69 h
same,half-life at 5 µM,"Sprague-Dawley (SD), rat, half-life, with NADPH, no AST-3021",2.18 h
same,half-life at 5 µM,"cynomolgus (printed as 'machins'), monkey, Metabolic parameter t1/2, monkey, 2 mM NADPH, no AST-3021 (normal reaction / positive control group), 5 μM",2.53 h
same,half-life at 5 µM,"cynomolgus (printed as 'machins'), monkey, Metabolic parameter t1/2, monkey, negative control group (no NADPH, no AST-3021), 5 μM",2.87 h
same,average % Remaining,"human, 60 min, no NADPH, no AST-3021",38.96%
same,average % Remaining,"human, 60 min, with NADPH, no AST-3021",43.34%
same,half-life at 5 µM,"human, Metabolic parameter t1/2, human, 2 mM NADPH, no AST-3021 (normal reaction / positive control group), 5 μM",0.831 h
same,half-life at 5 µM,"human, Metabolic parameter t1/2, human, negative control group (no NADPH, no AST-3021), 5 μM",0.735 h
same,half-life at 5 µM,"human, half-life, with NADPH and AST-3021",1.08 h
same,half-life at 5 µM,"human, half-life, with NADPH, no AST-3021",0.831 h
same,half-life at 5 µM,"human, with AST-3021 (AKR1C3 inhibitor), 3 µM, Metabolic parameter t1/2, human, 2 mM NADPH + 3 μM AST-3021 (inhibition reaction group), 5 μM",1.08 h
same,% Remaining,"human, with NADPH and AST-3021",53.65%
same,Metabolic parameter k,"human, 2 mM NADPH + 3 μM AST-3021 (inhibition reaction group), 5 μM",0.0107
same,average % Remaining,"human, 2 mM NADPH + 3 μM AST-3021 (inhibition reaction group), 5 μM, 0 min",100.00%
same,average % Remaining,"human, 2 mM NADPH + 3 μM AST-3021 (inhibition reaction group), 5 μM, 5 min",83.74%
same,average % Remaining,"human, 2 mM NADPH + 3 μM AST-3021 (inhibition reaction group), 5 μM, 15 min",78.58%
same,average % Remaining,"human, 2 mM NADPH + 3 μM AST-3021 (inhibition reaction group), 5 μM, 30 min",67.01%
same,average % Remaining,"human, 2 mM NADPH + 3 μM AST-3021 (inhibition reaction group), 5 μM, 45 min",66.39%
same,average % Remaining,"human, 2 mM NADPH + 3 μM AST-3021 (inhibition reaction group), 5 μM, 60 min",53.65%
same,Metabolic parameter k,"human, 2 mM NADPH, no AST-3021 (normal reaction / positive control group), 5 μM",0.0139
same,average % Remaining,"human, 2 mM NADPH, no AST-3021 (normal reaction / positive control group), 5 μM, 0 min",100.00%
same,average % Remaining,"human, 2 mM NADPH, no AST-3021 (normal reaction / positive control group), 5 μM, 5 min",88.27%
same,average % Remaining,"human, 2 mM NADPH, no AST-3021 (normal reaction / positive control group), 5 μM, 15 min",79.04%
same,average % Remaining,"human, 2 mM NADPH, no AST-3021 (normal reaction / positive control group), 5 μM, 30 min",70.02%
same,average % Remaining,"human, 2 mM NADPH, no AST-3021 (normal reaction / positive control group), 5 μM, 45 min",52.35%
same,average % Remaining,"human, 2 mM NADPH, no AST-3021 (normal reaction / positive control group), 5 μM, 60 min",43.34%
same,Metabolic parameter k,"human, negative control group (no NADPH, no AST-3021), 5 μM",0.0157
same,average % Remaining,"human, negative control group (no NADPH, no AST-3021), 5 μM, 0 min",100.00%
same,average % Remaining,"human, negative control group (no NADPH, no AST-3021), 5 μM, 60 min",38.96%
same,half-life at 5 µM,"machin (cynomolgus), monkey, with AST-3021 (AKR1C3 inhibitor), 3 µM, Metabolic parameter t1/2, monkey, 2 mM NADPH + 3 μM AST-3021 (inhibition reaction group), 5 μM",2.59 h
same,half-life at 5 µM,"machins, monkey, half-life, with NADPH and AST-3021",2.59 h
same,half-life at 5 µM,"machins, monkey, half-life, with NADPH, no AST-3021",2.53 h
same,average % Remaining,"monkey, 60 min, no NADPH, no AST-3021",78.57%
same,average % Remaining,"monkey, 60 min, with NADPH, no AST-3021",73.28%
same,% Remaining,"monkey, with NADPH and AST-3021",69.52%
same,Metabolic parameter k,"monkey, 2 mM NADPH + 3 μM AST-3021 (inhibition reaction group), 5 μM",0.0045
same,average % Remaining,"monkey, 2 mM NADPH + 3 μM AST-3021 (inhibition reaction group), 5 μM, 0 min",100.00%
same,average % Remaining,"monkey, 2 mM NADPH + 3 μM AST-3021 (inhibition reaction group), 5 μM, 5 min",96.83%
same,average % Remaining,"monkey, 2 mM NADPH + 3 μM AST-3021 (inhibition reaction group), 5 μM, 15 min",101.19%
same,average % Remaining,"monkey, 2 mM NADPH + 3 μM AST-3021 (inhibition reaction group), 5 μM, 30 min",90.97%
same,average % Remaining,"monkey, 2 mM NADPH + 3 μM AST-3021 (inhibition reaction group), 5 μM, 45 min",88.36%
same,average % Remaining,"monkey, 2 mM NADPH + 3 μM AST-3021 (inhibition reaction group), 5 μM, 60 min",69.52%
same,Metabolic parameter k,"monkey, 2 mM NADPH, no AST-3021 (normal reaction / positive control group), 5 μM",0.0046
same,average % Remaining,"monkey, 2 mM NADPH, no AST-3021 (normal reaction / positive control group), 5 μM, 0 min",100.00%
same,average % Remaining,"monkey, 2 mM NADPH, no AST-3021 (normal reaction / positive control group), 5 μM, 5 min",98.89%
same,average % Remaining,"monkey, 2 mM NADPH, no AST-3021 (normal reaction / positive control group), 5 μM, 15 min",94.52%
same,average % Remaining,"monkey, 2 mM NADPH, no AST-3021 (normal reaction / positive control group), 5 μM, 30 min",89.81%
same,average % Remaining,"monkey, 2 mM NADPH, no AST-3021 (normal reaction / positive control group), 5 μM, 45 min",83.43%
